Results taken from US6602664B2 (priority 1998, dated 2003).
Structures can show the parent of a compound that is named as a salt. Where two headings read alike, the source gives them in different places.

Columns and labels:
[1] = system: HIV-1 replication in human PBM cells; assay: microbe, parasite or virus in culture; format: cell-based
Experimental: Cells and viruses. […] Antimicrobial Agents Chemother 1992;36(11): 2423-2431.
Cell pellets were washed, centrifuged, lysed and the proviral DNA extracted as previously described. Cytotoxicity of the compounds was determined using the Promega Cell Titer 96 dye uptake assay (Madison, Wis.) in 1-2 day PHA-stimulated PBM cells after 5 days in culture. The median effective concentration (EC50) and inhibitory concentration (IC50) were derived from the computer-generated median effect plot of the dose-effect data, as described previously.

[2] = system: recombinant HIV-1 virus isolates; format: cell-based
Description: The aim of the study was to determine the potency of the inhibitory effect of a new generation of NRTIs on Multi Drug Resistant isolates and to compare it with their effect on wild-type HIV-1 isolates. All recombinant viruses were taken from the VIRCO repository of phenotypically and genotypically characterized virus isolates. Hirsch et al. Antiretroviral Drug Resistance Testing in Adults with HIV Infection. JAMA; 1998: 79(24) 1984-1991. See also Pauwels et al. Comprehensive HIV drug Resistance monitoring using rapid, high-throughput phenotypic and genotypic assays with correlative data analysis. Antiviral Therapy, 1998: 3: 35 Abstract 51.
Phenotypic drug susceptibility determination of recombinant virus isolates is described in Hertogs et al. A Rapid Method for Simultaneous Detection of Phentypic Resistance to Inhibitors of Protease and Reverse Transcriptase in Recombinant HIV-1 Isolates from Patients Treated with Antiretroviral Drugs. Antimicrob. Agents Chemother. 1998; 42(2): 269-276. The basic principle of the Antivirogram® technology is the construction of chimeric HIV-1 strains composed of the protease (PR) and reverse transcriptase (RT) gene sequences which are isolated and amplified from patient viral RNA. Amplicons are subsequently transfected into CD4+T cells together with a standard laboratory isogenic (HXB2) HIV-1 DNA construct from which the PR/RT gene sequences were deleted. After homologous recombination, new viruses whose diversity reflects the original population amplified from the plasma are produced at high level from these cells.
The virus infectivity (CCID50) is determined by an end-point dilution method. The titer is calculated from the degree of infection, measured by the intensity of reporter-gene signal as generated by serial dilutions of the virus shock. The chimeric (clinical isolates and wild-type reference) viruses are then analyzed for their phenotypic sensitivity (i.e. susceptibility) to the different PR and RT-inhibitors in an automated reporter gene-based assay using serial dilutions of the compound. The standardisation of the Antivirogram®n assay allows for simultaneous testing of all clinically approved drugs in one 384-well microtiter plate. The experimental drugs are included in separate plates. Each plate contains multiple replicates of mock-infected wells, virus-infection control wells and blank (medium-only) well. All plates are tested in duplicate. 50% Inhibitory concentrations are calculated based on reporter signals obtained through optical reading of 384-well plates containing serial dilutions of compounds, a normalised quantity of virus and by taking into account all relevant control wells. Approval (or not) is done according to critical ranges and settings as described in the corresponding VIRCO Standard Operating Procedure.
A more detailed description of the protocol is as follows. Samples were stored frozen. […] To confirm the genotypic pattern, genotyping (ABI-sequencing) was performed after recombination and culture of the laboratory strains by analysis of cell viability, calculation of results (dose-response curves, IC50 values), and reporting of data.

With `Nc1ccn([C@@H]2CS[C@H](CO)O2)c(=O)n1` [3TC, (−)-β-2′,3′-dideoxy-3′-thiacytidine] the EC50 ([1]; Human immunodeficiency virus 1, PBMC, Table 2, human PBMC) was 6.7 nM, the EC90 ([1]; Human immunodeficiency virus 1, PBMC, Table 2, human PBMC, read-out: EC90) was 51 nM and the “m ± SE (slope of median effect plot)” value ([1]; Table 2, human PBMC) was 1.08 ± 0.15. For the same compound, the “fold Resistance” value ([2]; RT genotype D67D/N, K70R, M184V, G333E) was greater than 99, the “fold Resistance” value ([2]; RT genotype D67N, K70R, K219Q/K, 181C/Y) was 3.7 and the “fold Resistance” value ([2]; RT genotype K70R, K219Q) was 1. For the same compound, the “fold Resistance” value ([2]; RT genotype M41L, D67N, K70R, K103N, L210W, T215Y, K219N/K) was 8.25, the “fold Resistance” value ([2]; RT genotype M41L, L210L, T215Y, Y181C/Y, M184M/V) was 3 and the “fold Resistance” value ([2]; RT genotype M41L, L210W, T215Y) was 0.4. For the same compound, the “fold Resistance” value ([2]; RT genotype M41L, T69S-V-T, L210W, T215Y, G333E) was greater than 65, the “fold Resistance” value ([2]; RT genotype M41L, T215Y, M184V) was greater than 99 and the “fold Resistance” value ([2]; RT genotype T69G, Q151M, M184V/M) was greater than 65. For the same compound, the “fold Resistance” value ([2]; RT genotype T69I, K70R, Q151M, M184V) was greater than 65, the “fold Resistance” value ([2]; RT genotype T69S-E, M184I, T215Y) was greater than 65 and the “fold Resistance” value ([2]; RT genotype T215Y) was 1.5. The “fold Resistance” value ([2]; recombinant isolate, RT genotype K70R) was 1.
`Nc1nc(N)c2ncn([C@H]3CO[C@@H](CO)O3)c2n1` [DAPD, β-D-dioxolanyl-2,6-diaminopurine] was tested, and the EC50 ([1]; Table 3, human PBMC) was 1810 nM, the “m ± SE (slope of median effect plot)” value ([1]; Table 3, human PBMC) was 1.40 ± 0.14 and the EC90 ([1]; Table 3, human PBMC, read-out: EC90) was 8680 nM.
With `CC(C)(C)NC(=O)[C@@H]1CN(Cc2cccnc2)CCN1C[C@@H](O)C[C@@H](Cc1ccccc1)C(=O)N[C@H]1c2ccccc2C[C@H]1O` [Indinavir, {1(1,S,2R),5(S)]-2,3,5-trideoxy-N-(2,3-dihydro-2-hydroxy-1H-inden-1-yl)-5-[2-[[(1,1-dimethylethyl)amino]carbonyl]4-(3-pyridinylmethyl)-1-piperazinyl]-2-(phenylmethyl)-D-erythro-pentoamide sulfate] the “m ± SE (slope of median effect plot)” value [1] was 0.86 ± 0.17, the EC90 ([1]; Human immunodeficiency virus 1, PBMC) was 19 nM and the inhibition at 1 µM ([1]; Human immunodeficiency virus 1, PBMC, 144 h, concentration 0.001 mM, day 6, read-out: Inhibition %) was 29.9%. For the same compound, the inhibition at 10 µM ([1]; Human immunodeficiency virus 1, PBMC, 144 h, concentration 0.01 mM, day 6, read-out: Inhibition %) was 88.7% and the EC50 ([1]; Human immunodeficiency virus 1, PBMC, Table 3A, human PBMC) was 1.5 nM.
